Results published in patent US20120283293A1, “Methods of neuroprotection involving Prostaglandin E2 EP4 (PGE2 EP4) receptor activation” (The Board of Trustees of the Leland Stanford Junior …, priority 2011, published 2012).

Tested on: PKA activity in BV-2 cells
Test: cAMP dependent protein kinase A (PKA) activity assay in BV-2 cells
Type: cell-based, murine
Settings: H89 at 5 μM and 10 μM
Experimental: PKA activity was determined using the PKA kinase activity assay kit (Assay designs, Ann Arbor, Mich.). Cells were harvested 3 minutes after stimulation, and ELISA was carried out according to the manufacturer's instructions. Kinase activity was calculated as (sample absorbance—blank absorbance)/μg protein and normalized to the average value of vehicle.
Downstream signaling events for EP4, a […] receptor, were investigated in LPS treated BV-2 cells (see FIG. 3). […] The increase in PKA activity from EP4 receptor signaling was blocked with the PKA inhibitor H89 at doses of 5 μM and 10 μM (FIG. 3B).

O=S(=O)(NCCNC/C=C/c1ccc(Br)cc1)c1cccc2cnccc12 [H89]
AE1-329-mediated increase in PKA activity: blocked
